Results from patent US5147878A, “Aminoalkoxyphenyl derivatives, process of preparation and compositions containing the same” (Sanofi, priority 1986, dated 1992).
“And” between values parts separate entries of the source, which are not always exact repeats. Equal values may be shown once. Where a name gives a salt, the structure may show the parent alone.

How the values were obtained:
[1] = test system: isolated rat aorta; assay: Calcium inhibitory properties: contractile response to potassium-induced depolarization on isolated rat aorta; set-up: species or system isolated organ, male Wistar rats; details: for activity at 1 µM / activity at 0.1 µM / activity at 0.01 µM / activity at 10 µM / activity at 0.001 µM: Rattus norvegicus, 1 h, read-out: % of the maximum contractional effect; for activity at 1 µM: 10^-6 M; for activity at 10 µM: 10^-5 M; for activity at 0.001 µM: 10^-9 M; for % of the maximum contractional effect: 60 min
Outline: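 Male Wistar rat aorta strips under 2 g tension in modified Krebs-bicarbonate at 37° C, gassed with CO2/O2; contraction induced by 100 mM KCl potassium-Krebs. Compound incubated 60 min before repeat K+ depolarization; response expressed as % of maximum contraction before compound.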

[2] = test system: isoprenaline-induced acceleration in heart rate (anti-β effect); assay: Antiadrenergic properties: anti-β effect (reduction of isoprenaline-induced tachycardia); type: in vivo; set-up: key to anti-β effect: +: for a reduction < 50%; ++: for a reduction ≥ 50%; +++: for a reduction sub-total (almost complete reduction); details: dog
Experimental: The object of this test is to determine the capacity of the compounds of the invention for reducing the increase in epinephrine-induced increase in blood-pressure (anti-α effect) and the isoprenaline-induced acceleration in heart rate (anti-β effect), in dogs previously anaesthatized with pentobarbital and atropinized. For each dog, the dose of epinephrine (between 3 and 10 μg/kg) which induced a reproducible increase in the blood-pressure of approximately 133×10^2 Pa and the dose of isoprenaline (1 to 2 μg/kg) which induced a reproducible increase in the heart rate of approximately 70 beats/min. were first determined. The dose of epinephrine and of isoprenaline, determined in this manner, were injected alternately every ten minutes and, after two successive reference responses had been obtained, an amount of the test compound was administered intravenously. The percentage reduction in the acceleration of the heart rate induced by the test compound compared with the reference tachycardia measured previously (approximately 70 beats) was recorded. In both cases, the results of the reduction in blood-pressure or in the heart rate have been expressed as follows: […]

[3] = test system: epinephrine-induced increase in blood-pressure (anti-α effect); assay: Antiadrenergic properties: anti-α effect (reduction of epinephrine-induced hypertension); type: in vivo; set-up: key to anti-α effect: +: for a reduction < 50%; ++: for a reduction ≥ 50%; +++: for a reduction sub-total (almost complete reduction); details: dog
Experimental: The object of this test is to determine the capacity of the compounds of the invention for reducing the increase in epinephrine-induced increase in blood-pressure (anti-α effect) and the isoprenaline-induced acceleration in heart rate (anti-β effect), in dogs previously anaesthatized with pentobarbital and atropinized. For each dog, the dose of epinephrine (between 3 and 10 μg/kg) which induced a reproducible increase in the blood-pressure of approximately 133×10^2 Pa and the dose of isoprenaline (1 to 2 μg/kg) which induced a reproducible increase in the heart rate of approximately 70 beats/min. were first determined. The dose of epinephrine and of isoprenaline, determined in this manner, were injected alternately every ten minutes and, after two successive reference responses had been obtained, an amount of the test compound was administered intravenously. The percentage reduction in the hypertension induced by the test compound compared with the reference hypertension previously obtained (approximately 100 mm Hg) was recorded. In both cases, the results of the reduction in blood-pressure or in the heart rate have been expressed as follows: […]

[4] = Canis lupus familiaris, iv, 0.1 mg/kg i.v.
[5] = Canis lupus familiaris, iv, 5.89 mg/kg i.v.
[6] = Canis lupus familiaris, iv, 0.12 mg/kg i.v.
[7] = Canis lupus familiaris, iv, 0.027 mg/kg i.v.
[8] = Canis lupus familiaris, iv, 4.9 mg/kg i.v.

SMILES | activity at 1 µM [1] | activity at 0.1 µM ([1]; 10^-7 M) | activity at 0.01 µM ([1]; 10^-8 M) | activity at 0.001 µM [1] | also measured
CC(C)c1cn2ccccc2c1S(=O)(=O)c1ccc(OCCCN(C)C)cc1 [Ex. 14, 2-Isopropyl-1-{4-[3-(dimethylamino)propyloxy]benzenesulphonyl}indolizine] | 32.6% |  |  |  | anti-β effect ([2]; 2.5 mg/kg i.v.): +++; anti-α effect ([3]; 2.5 mg/kg i.v.): +++
COc1ccc(CCN(C)CCCOc2ccc(S(=O)(=O)C3=C(C(C)C)OCC3)cc2)cc1OC [Ex. 73, 2-isopropyl-3-[4-{3-[N-methyl-N-(3,4-dimethoxy-β-phenethyl)amino]propyloxy}benzenesulphonyl]-4,5-dihydro-furan oxalate] | 8.2% | 66.7% | 78.3% |  | inhibition in vivo at 3 mg/kg ([2]; Canis lupus familiaris, iv, 3 mg/kg i.v.): ≥ 50%; anti-α effect ([3]; 3 mg/kg i.v.): +++
CCCCN(CCCC)CCCCOc1ccc(S(=O)(=O)c2c(CC)cn3ccccc23)cc1 [Ex. 23, 2-Ethyl-1-{4-[4-(di-n-butylamino)butyloxy]benzenesulphonyl}indolizine hemioxalate] |  | 24.1% | 77.8% |  | anti-β effect ([2]; 1 mg/kg i.v.): +++; anti-α effect ([3]; 1 mg/kg i.v.): +++
CCCCN(CCCC)CCCOc1ccc(Sc2c(C(C)C)cn3ccccc23)cc1.O=C(O)C(=O)O [Ex. 52, 1-{4-[3-(di-n-butylamino)propyloxy]phenylthio}-2-isopropylindolizine oxalate] | 81.2% |  |  |  | activity at 10 µM [1]: 69.2%; inhibition in vivo at 5.4 mg/kg ([2]; Canis lupus familiaris, iv, 5.4 mg/kg i.v.): ≥ 50%; anti-α effect ([3]; 5.4 mg/kg i.v.): +++
CCCCNCCCOc1ccc(S(=O)(=O)c2c(CC)cn3ccccc23)cc1.O=C(O)C(=O)O [Ex. 21, 2-Ethyl-1-{4-[3-(n-butylamino)propyloxy]benzenesulphonyl}indolizine oxalate] | 8.3% | 74.7% |  |  | anti-β effect ([2]; 5 mg/kg i.v.): +++; anti-α effect ([3]; 5 mg/kg i.v.): +++
COc1ccc(CCN(C)CCCCOc2ccc(S(=O)(=O)c3c(C(C)C)cn4ccccc34)cc2)cc1OC [Ex. 42, 2-Isopropyl-1-[4-{4-[N-methyl-N-(3,4-dimethoxy-β-phenethyl)amino]butyloxy]benzenesulphonyl]indolizine] |  | 21.1% | 53.9% | 78.8% | anti-β effect ([2]; 0.1 mg/kg i.v.): +++; anti-α effect ([3]; 0.1 mg/kg i.v.): +++
COc1ccc(CNCCCOc2ccc(S(=O)(=O)c3c(C(C)C)cn4ccccc34)cc2)cc1OC [Ex. 43, 2-Isopropyl-1-{4-[3-(3,4-dimethoxybenzylamino)propyloxy]benzenesulphonyl}indolizine] |  | 9.7% | 58.4% | 88.7% | anti-β effect ([2]; 0.2 mg/kg i.v.): +++; anti-α effect ([3]; 0.2 mg/kg i.v.): +++
COc1ccc(CCN(C)CCCOc2ccc(S(=O)(=O)c3c(C(C)C)oc4ccccc34)cc2)cc1OC [Ex. 66, 2-isopropyl-3-[4-{3-[N-methyl-N-(3,4-dimethoxy-β-phenethylamino]propyloxy}benzenesulphonylbenzofuran oxalate] | 2.6% | 19.7% | 60.4% | 81.7% | inhibition in vivo at 0.1 mg/kg [2, 4]: < 50%; anti-α effect ([3]; 0.1 mg/kg i.v.): +++
CCCCc1nc2ccccc2n1S(=O)(=O)c1ccc(OCCCN(CCCC)CCCC)cc1 [Ex. 65, 2-n-butyl-1-{4-[3-(di-n-butylamino)propyloxy]benzenesulphonyl}benzimidazolacid oxalate] | 47.5% | 64.8% |  |  | inhibition in vivo at 5.89 mg/kg [2, 5]: ≥ 50%; inhibition in vivo at 5.89 mg/kg [3, 5]: ≥ 50%
COc1ccc(CCN(C)CCCOc2ccc(S(=O)(=O)c3cc4ccccc4nc3C(C)C)cc2)cc1OC [Ex. 75, 2-isopropyl-3-[4-{3-[N-methyl-N-(3,4-dimethoxy-β-phenethyl)amino]propyloxy}benzenesulphonyl]quinoline oxalate] |  |  | 89.7% |  | % of the maximum contractional effect ([1]; 10^-7 M, 0.1 µM): 54% and 79.6%; inhibition in vivo at 1.3 mg/kg ([2]; Canis lupus familiaris, iv, 1.3 mg/kg i.v.): < 50%; anti-α effect ([3]; 1.3 mg/kg i.v.): +++
CCCCN(CCCC)CCCOc1ccc(S(=O)(=O)c2c(C(C)C)nn3ccccc23)cc1 [Ex. 70, 2-isopropyl-3-{4-[3-(di-n-butylamino)propyloxy]benzenesulphonyl}pyrazolo[1,5-a]pyridine oxalate] | 0% | 18.9% | 83% |  | inhibition in vivo at 0.12 mg/kg [2, 6]: < 50%; inhibition in vivo at 0.12 mg/kg [3, 6]: ≥ 50%
COc1ccc(CCN(C)CCCOc2ccc(S(=O)(=O)c3c(C(C)C)cn4ncccc34)cc2)cc1OC [Ex. 76, 5-[4-{3-[N-methyl-N-(3,4-dimethoxy-β-phenethyl)amino]propyloxy}benzenesulphonyl]-6-isopropyl-pyrrolo[1,2-b]pyridazine oxalate] |  | 0% | 18.1% | 68.1% | inhibition in vivo at 0.13 mg/kg ([2]; Canis lupus familiaris, iv, 0.13 mg/kg i.v.): < 50%; anti-α effect ([3]; 0.13 mg/kg i.v.): +++
CCCCc1cn2ccccc2c1S(=O)(=O)c1ccc(OCCCN(CCC)CCC)cc1.O=C(O)C(=O)O [Ex. 12, 2-n-Butyl-1-{4-[3-(di-n-propylamino)propyloxy]benzenesulphonyl}indolizine oxalate] | 36.3% |  |  |  | anti-β effect ([2]; 5 mg/kg i.v.): +++; inhibition in vivo at 5 mg/kg ([3]; Canis lupus familiaris, iv, 5 mg/kg i.v.): ≥ 50%
CCCCN(CCCOc1ccc(S(=O)(=O)c2c(C(C)C)cn3ccccc23)cc1)CCc1ccc(OC)c(OC)c1 [Ex. 45, 2-Isopropyl-1-[4-{3-[N-n-butyl-N-(3,4-dimethoxy-β-phenethyl)amino]propyloxy}benzenesulphonyl]indolizine acid oxalate] |  | 18.7% | 62.3% | 80.7% | inhibition in vivo at 0.1 mg/kg [2, 4]: ≥ 50%; inhibition in vivo at 0.1 mg/kg [3, 4]: ≥ 50%
COc1cc(CCNCCCOc2ccc(S(=O)(=O)c3c(C(C)C)cn4ccccc34)cc2)cc(OC)c1 [Ex. 133, 1-[4-{3-[N-(3,5-dimethoxy-β-phenethyl)amino]propyloxy}benzenesulphonyl]-2-isopropyl-indolizine acid oxalate] |  | 6.2% | 30.5% | 73.4% | % of the maximum contractional effect ([1]; 10^-8 M, 0.01 µM): 30.3%; inhibition in vivo at 0.027 mg/kg [2, 7]: < 50%; inhibition in vivo at 0.027 mg/kg [3, 7]: ≥ 50%
CCCCN(CCCC)CCCOc1ccc(S(=O)(=O)c2ccccc2)cc1 [Ex. 64, 4-[3-(di-n-butylamino)propyloxy]benzenesulphonylbenzene oxalate] | 32.4% | 85.3% |  |  | inhibition in vivo at 4.9 mg/kg [2, 8]: ≥ 50%; inhibition in vivo at 4.9 mg/kg [3, 8]: < 50%
COc1ccc(CCN(C)CCCOc2ccc(Sc3c(C(C)C)cn4ccccc34)cc2)cc1OC [Ex. 53, 1-[4-{3-[N-methyl-N-(3,4-dimethoxy-β-phenethyl)amino]propyloxy}phenylthio]-2-isopropylindolizine oxalate] | 75.4% |  |  |  | activity at 10 µM [1]: 59.8%; inhibition in vivo at 6.1 mg/kg ([2]; Canis lupus familiaris, iv, 6.1 mg/kg i.v.): < 50%; anti-α effect ([3]; 6.1 mg/kg i.v.): +++
CCCCN(CCCC)CCCOc1ccc(S(=O)(=O)c2c(C3CCCCC3)cn3ccccc23)cc1 [Ex. 51, 2-Cyclohexyl-1-{4-[3-(di-n-butylamino)propyloxy]-benzenesulphonyl}indolizin] | 58.9% | 80.4% |  |  | inhibition in vivo at 5.2 mg/kg ([2]; Canis lupus familiaris, iv, 5.2 mg/kg i.v.): ≥ 50%; anti-α effect ([3]; 5.2 mg/kg i.v.): +++
